Laboratory results as given in BindingDB's records for patent US11884671 (AstraZeneca, 2024).

What was measured:
[1] = target: Aurora kinase B (Homo sapiens, UniProt Q96GD4); assay: Enzyme Assay
Method: Aurora B (AurB): The 2×AURKB (Aurora B)/Ser/Thr 01 (ThermoFisher Scientific proprietary) mixture was prepared in 50 mM HEPES pH 7.5, 0.01% BRIJ-35, 10 mM MgCl2, 1 mM EGTA.

[2] = target: Tyrosine-protein kinase JAK2 (Homo sapiens, UniProt O60674); assay: Enzyme Assay
Method: JAK2: The 2×JAK2/Tyr 06 (ThermoFisher Scientific proprietary) mixture was prepared in 50 mM HEPES pH 7.5, 0.01% BRIJ-35, 10 mM MgCl2, 1 mM EGTA.

[3] = target: T1, Aurora kinase A (Homo sapiens, UniProt O14965)
T1 sequence (O14965 whole entry): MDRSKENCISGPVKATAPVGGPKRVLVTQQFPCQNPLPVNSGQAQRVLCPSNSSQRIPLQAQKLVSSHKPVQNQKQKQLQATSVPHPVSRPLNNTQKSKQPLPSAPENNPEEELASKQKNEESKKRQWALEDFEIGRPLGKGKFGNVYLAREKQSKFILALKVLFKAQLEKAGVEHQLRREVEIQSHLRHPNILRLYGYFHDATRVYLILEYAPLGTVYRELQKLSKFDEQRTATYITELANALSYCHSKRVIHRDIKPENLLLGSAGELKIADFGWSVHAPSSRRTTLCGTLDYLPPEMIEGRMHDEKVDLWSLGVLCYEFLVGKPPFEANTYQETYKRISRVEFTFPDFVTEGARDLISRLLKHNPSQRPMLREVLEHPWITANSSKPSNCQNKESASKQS

[4] = target: T2, Dual specificity protein kinase TTK (Homo sapiens, UniProt P33981); assay: TTK Enzyme Assay
T2 sequence (P33981 whole entry): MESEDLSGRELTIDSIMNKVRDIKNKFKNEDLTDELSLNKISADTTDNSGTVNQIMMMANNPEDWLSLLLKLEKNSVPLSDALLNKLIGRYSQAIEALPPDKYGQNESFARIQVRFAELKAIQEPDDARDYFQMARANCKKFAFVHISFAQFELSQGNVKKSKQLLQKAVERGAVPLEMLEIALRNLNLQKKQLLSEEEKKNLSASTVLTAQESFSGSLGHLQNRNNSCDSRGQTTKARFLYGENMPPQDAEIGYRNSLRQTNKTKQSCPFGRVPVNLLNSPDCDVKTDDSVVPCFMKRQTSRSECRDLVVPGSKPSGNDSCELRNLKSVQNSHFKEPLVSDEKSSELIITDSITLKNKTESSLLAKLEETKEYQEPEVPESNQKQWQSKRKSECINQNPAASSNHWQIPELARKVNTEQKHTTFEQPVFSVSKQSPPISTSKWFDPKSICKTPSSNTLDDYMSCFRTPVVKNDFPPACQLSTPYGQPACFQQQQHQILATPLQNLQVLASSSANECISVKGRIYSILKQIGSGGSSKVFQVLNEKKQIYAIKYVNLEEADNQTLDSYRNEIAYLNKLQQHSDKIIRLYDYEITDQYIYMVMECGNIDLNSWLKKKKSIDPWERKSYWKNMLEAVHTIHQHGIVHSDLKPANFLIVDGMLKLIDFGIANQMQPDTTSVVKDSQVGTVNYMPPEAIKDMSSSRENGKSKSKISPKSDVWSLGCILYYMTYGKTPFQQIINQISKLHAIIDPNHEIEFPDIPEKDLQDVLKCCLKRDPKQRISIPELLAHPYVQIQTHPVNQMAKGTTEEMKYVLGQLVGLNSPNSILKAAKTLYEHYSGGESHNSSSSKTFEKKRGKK
Method: The inhibitory activity of compounds against TTK was determined in a LanthaScreen Eu Kinase Binding assay run by ThermoFisher Scientific as part of their SelectScreen Biochemical Kinase Profiling Service. The LanthaScreen Eu Kinase Binding assay format uses binding of an Alexa Fluor conjugate or tracer to a kinase, which is detected by addition of a Eu-labeled anti-tag antibody. […] Plates were then read using a fluorescence plate reader.

[5] = target: T3, Tyrosine-protein kinase JAK3 (Homo sapiens, UniProt P52333); assay: Enzyme Assay
T3 sequence (P52333 whole entry): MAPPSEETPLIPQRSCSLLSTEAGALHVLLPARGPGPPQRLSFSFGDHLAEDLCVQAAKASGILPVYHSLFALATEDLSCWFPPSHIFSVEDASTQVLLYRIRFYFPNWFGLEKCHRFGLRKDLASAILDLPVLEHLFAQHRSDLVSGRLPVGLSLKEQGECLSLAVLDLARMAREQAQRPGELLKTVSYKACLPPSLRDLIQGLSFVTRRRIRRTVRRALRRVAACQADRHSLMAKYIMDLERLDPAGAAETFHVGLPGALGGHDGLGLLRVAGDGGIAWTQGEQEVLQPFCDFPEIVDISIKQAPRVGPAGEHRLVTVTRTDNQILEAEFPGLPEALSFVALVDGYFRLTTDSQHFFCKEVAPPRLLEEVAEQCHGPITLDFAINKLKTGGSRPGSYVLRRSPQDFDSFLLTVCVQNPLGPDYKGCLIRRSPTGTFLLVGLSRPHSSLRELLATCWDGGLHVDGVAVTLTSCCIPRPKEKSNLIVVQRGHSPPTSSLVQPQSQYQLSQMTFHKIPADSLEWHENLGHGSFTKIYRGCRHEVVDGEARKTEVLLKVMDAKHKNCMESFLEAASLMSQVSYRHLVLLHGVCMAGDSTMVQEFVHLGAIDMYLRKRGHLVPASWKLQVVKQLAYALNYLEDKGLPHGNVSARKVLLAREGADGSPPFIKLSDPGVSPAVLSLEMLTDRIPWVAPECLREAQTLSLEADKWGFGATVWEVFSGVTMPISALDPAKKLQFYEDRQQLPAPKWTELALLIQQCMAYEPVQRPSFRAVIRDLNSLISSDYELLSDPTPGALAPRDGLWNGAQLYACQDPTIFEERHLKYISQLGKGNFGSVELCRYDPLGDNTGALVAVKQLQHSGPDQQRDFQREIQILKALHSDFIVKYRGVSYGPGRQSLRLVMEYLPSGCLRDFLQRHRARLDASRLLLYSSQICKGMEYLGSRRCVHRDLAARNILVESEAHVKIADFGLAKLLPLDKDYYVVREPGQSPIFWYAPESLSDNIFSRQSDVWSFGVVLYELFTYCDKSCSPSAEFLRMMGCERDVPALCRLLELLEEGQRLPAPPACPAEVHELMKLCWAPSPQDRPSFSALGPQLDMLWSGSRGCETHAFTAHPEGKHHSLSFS
Method: JAK3: The 2×JAK3/Tyr 06 (ThermoFisher Scientific proprietary) mixture was prepared in 50 mM HEPES pH 7.5. 0.01% BRIJ-35, 10 mM MgCl2, 1 mM EGTA.

[6] = target: Tyrosine-protein kinase JAK1 (Homo sapiens, UniProt P23458); assay: Enzyme Assay
Sequence of Tyrosine-protein kinase JAK1 (P23458 whole entry): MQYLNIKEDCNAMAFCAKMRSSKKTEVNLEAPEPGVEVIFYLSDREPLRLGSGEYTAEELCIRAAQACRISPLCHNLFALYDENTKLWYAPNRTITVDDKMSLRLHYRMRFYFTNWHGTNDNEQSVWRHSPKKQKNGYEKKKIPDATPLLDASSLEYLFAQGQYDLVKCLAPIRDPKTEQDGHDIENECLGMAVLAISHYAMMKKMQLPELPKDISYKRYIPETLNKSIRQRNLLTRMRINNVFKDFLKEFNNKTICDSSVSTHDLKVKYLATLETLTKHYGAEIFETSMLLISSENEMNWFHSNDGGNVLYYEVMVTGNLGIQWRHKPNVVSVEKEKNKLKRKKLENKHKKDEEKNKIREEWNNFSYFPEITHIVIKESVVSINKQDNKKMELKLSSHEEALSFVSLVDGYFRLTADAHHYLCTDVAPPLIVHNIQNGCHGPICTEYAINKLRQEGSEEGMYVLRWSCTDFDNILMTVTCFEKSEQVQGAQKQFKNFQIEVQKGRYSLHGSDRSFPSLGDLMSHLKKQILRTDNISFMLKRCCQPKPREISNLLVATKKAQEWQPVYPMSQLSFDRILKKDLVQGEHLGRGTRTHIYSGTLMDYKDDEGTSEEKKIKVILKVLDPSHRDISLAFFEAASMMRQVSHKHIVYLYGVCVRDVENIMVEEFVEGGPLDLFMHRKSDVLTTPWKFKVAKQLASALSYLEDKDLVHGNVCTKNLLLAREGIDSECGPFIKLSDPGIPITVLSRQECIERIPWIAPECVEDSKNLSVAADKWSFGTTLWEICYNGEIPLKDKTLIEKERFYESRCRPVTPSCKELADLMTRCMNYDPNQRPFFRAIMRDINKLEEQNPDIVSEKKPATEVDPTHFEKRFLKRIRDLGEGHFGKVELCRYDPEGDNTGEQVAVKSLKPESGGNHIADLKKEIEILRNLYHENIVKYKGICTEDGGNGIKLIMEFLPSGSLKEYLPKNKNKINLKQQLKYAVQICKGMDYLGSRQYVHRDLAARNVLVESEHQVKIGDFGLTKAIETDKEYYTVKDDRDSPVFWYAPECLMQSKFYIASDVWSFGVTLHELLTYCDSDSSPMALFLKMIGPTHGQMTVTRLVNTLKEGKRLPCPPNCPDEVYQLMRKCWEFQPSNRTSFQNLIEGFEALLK
Method: JAK1: The 2×JAK/Tyr 06 (ThermoFisher Scientific proprietary) mixture was prepared in 50 mM HEPES pH 6.5, 0.01% BRIJ-35, 10 mM MgCl2, 1 mM EGTA, 0.02% NaN3.

Sequence of Aurora kinase B (Q96GD4 whole entry): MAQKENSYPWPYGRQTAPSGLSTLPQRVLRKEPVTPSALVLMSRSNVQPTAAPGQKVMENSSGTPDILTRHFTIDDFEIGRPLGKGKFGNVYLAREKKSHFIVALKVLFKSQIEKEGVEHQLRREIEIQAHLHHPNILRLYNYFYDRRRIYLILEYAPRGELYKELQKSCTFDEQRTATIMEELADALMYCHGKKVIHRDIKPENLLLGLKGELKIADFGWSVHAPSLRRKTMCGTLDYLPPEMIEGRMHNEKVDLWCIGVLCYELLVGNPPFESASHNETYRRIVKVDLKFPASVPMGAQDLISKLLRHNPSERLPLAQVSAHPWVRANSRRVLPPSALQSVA
Sequence of Tyrosine-protein kinase JAK2 (O60674 whole entry): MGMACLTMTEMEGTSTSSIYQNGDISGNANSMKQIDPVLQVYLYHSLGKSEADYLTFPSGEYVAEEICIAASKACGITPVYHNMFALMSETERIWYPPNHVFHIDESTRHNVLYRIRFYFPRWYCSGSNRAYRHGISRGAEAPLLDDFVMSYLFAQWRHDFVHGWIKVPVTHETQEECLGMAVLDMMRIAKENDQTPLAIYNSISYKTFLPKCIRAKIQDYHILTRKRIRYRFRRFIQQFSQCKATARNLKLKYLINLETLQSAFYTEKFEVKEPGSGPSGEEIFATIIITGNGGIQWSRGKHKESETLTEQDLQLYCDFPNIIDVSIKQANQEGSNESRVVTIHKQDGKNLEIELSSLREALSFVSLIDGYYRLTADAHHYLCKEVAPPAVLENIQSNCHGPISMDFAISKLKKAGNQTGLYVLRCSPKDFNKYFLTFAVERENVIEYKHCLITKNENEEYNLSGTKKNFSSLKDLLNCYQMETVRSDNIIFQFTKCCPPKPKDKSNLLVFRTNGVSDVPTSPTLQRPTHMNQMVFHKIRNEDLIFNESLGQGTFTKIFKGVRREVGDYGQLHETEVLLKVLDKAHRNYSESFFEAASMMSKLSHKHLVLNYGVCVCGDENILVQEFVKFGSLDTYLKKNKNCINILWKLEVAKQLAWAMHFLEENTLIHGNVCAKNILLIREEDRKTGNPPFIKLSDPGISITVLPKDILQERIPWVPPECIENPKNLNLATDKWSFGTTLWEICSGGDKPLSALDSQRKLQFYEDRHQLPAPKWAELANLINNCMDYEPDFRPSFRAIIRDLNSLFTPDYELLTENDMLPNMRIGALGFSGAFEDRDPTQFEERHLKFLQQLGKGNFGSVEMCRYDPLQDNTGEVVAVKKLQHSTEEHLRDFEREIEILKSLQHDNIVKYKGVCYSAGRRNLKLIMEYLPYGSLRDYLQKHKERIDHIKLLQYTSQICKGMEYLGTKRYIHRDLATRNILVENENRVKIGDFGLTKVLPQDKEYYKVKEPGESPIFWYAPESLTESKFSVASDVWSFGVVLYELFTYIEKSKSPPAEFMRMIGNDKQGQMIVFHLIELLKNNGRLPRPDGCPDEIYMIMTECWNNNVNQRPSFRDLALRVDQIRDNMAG

Structure (SMILES) | IC50 [1] | IC50 [2] | IC50 [3] | IC50 [4] | IC50 [5] | IC50 [6]
Cc1cc2ncccc2cc1Nc1ncc2c(n1)n([C@H]1CC[C@@](C)(O)CC1)c(=O)n2C [US11884671, Example 14] | > 10 µM | > 10 µM | > 10 µM | 0.1 µM | > 10 µM | > 10 µM
Cc1cc2nnccc2cc1Nc1ncc2c(n1)n([C@H]1CC[C@](C)(O)CC1)c(=O)n2C [US11884671, Example 17] | > 10 µM | > 10 µM | > 10 µM | 0.316 µM | > 10 µM | > 10 µM
Cc1cc2ncccc2cc1Nc1ncc2c(n1)n([C@H]1CC[C@](C)(O)CC1)c(=O)n2C [US11884671, Example 15] | > 10 µM | > 10 µM | > 10 µM | 0.251 µM | > 10 µM | > 10 µM
Cc1cc2nnccc2cc1Nc1ncc2c(n1)n([C@H]1CC[C@@](C)(O)CC1)c(=O)n2C [US11884671, Example 16] | > 10 µM | > 10 µM | > 10 µM | 0.2 µM | > 10 µM | > 10 µM
